Earlier results, collected in patent publication US20260345798A1, “COMPOUNDS AND METHODS OF USE THEREOF” (Virginia Commonwealth University, priority 2023, published 2026).

What was measured:
[1] = test system: non-transformed normal or transformed cells; details: other cancer contexts; cited from earlier work
[2] = test system: PDZ domains in other sequence-similar proteins; details: cited from earlier work
[3] = target: T1, MDA-9/Syntenin (Homo sapiens, UniProt O00560); details: literature comparison; cited from earlier work
T1 sequence (O00560 1-298): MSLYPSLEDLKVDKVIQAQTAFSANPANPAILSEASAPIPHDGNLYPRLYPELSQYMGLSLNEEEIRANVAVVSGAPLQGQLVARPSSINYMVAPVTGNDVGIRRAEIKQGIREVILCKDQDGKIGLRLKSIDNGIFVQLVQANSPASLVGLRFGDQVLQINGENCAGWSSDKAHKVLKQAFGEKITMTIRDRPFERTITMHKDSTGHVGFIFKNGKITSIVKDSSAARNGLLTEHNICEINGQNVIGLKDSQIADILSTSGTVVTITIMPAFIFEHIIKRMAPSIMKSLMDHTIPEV

[4] = test system: cancer invasion; details: in vitro and in vivo, multiple experimental animal models; cited from earlier work
[5] = test system: T cells; details: cited from earlier work
[6] = test system: second PDZ2 domain of MDA-9/Syntenin; details: cited from earlier work

## Cc1cc(NC(=O)c2nc3nc4c(c(=O)n3[nH]2)CCC4)c(C)cc1NC(=O)CCc1nnc(-c2ccccc2)o1 [PDZ1i]
[1]
  detrimental effect on cells: not detrimental
[2]
  binding to PDZ domains in other sequence-similar proteins: without appreciable binding
[3]
  Kd: 23 µM
[4]
  blocking of cancer invasion: effectively blocks cancer invasion
[5]
  T cell infiltration into the tumor environment: causes T cell infiltration into the tumor environment
[6]
  binding to PDZ2 domain of MDA-9/Syntenin: without appreciable binding
